Series [1] addresses T1, transfected human CB1 receptor (Homo sapiens, UniProt P21554).
T1 construct: purchased Receptor Biology, Inc
The series can be described thus: In-vitro determination of affinity to CB1 receptor, radioligand [^3H]-CP55940. The series is classed as binding. To be noted: read-out: CB1 Receptor % Inhibition 10^−6 M. The procedure:
I. In-vitro Determination of Affinity to CB1/CB2-Rezeptors
The in-vitro determination of the affinity of the inventive substituted azetidine compounds to CB1/CB2-Receptors is carried out as described in the publication of Ruth A. Ross, Heather C. Brockie et al., “Agonist-inverse agonist characterization at CB1 and CB2 cannabinoid receptors of L-759633, L759656 and AM630”, British Journal of Pharmacology, 126, 665-672, (1999). The respective parts of the descriptions are hereby incorporated by reference and form part of the present disclosure. The transfected human CB1 and CB2 receptor are obtained from Receptor Biology, Inc. The radioligand used for both receptors is [^3H]-CP55940.
The affinity of the inventive substituted azetidine compounds to CB1/CB2 receptors is determined as described above.

Series [2] has as its system cannabinoid receptors. The series can be described thus: Mouse tetrad model, antagonistic effect against Win 55212-2. The format is in vivo. The note with it: 5 mg/kg i.v. prior to Win 55212-2 1.25 mg/kg i.v.; male NMRI mice. More on the design: unit not given here. An excerpt:
(§1) Substances with affinity for cannabinoid receptors are known to produce a wide range of pharmacological effects. It is also known that intravenous administration of a substance with affinity for cannabinoid receptors in mice produces analgesia, hypothermia, sedation and catalepsy. Individually, none of these effects can be considered as proof that a tested substance has affinity for cannabinoid-receptors, since all of these effects are common for various classes of centrally active agents. However, substances, which show all of these effects, i.e. substances that are active in this so-called tetrad model are considered to have affinity for the cannabinoid receptors. It has further been shown that cannabinoid receptor antagonists are higly effective in blocking the effects of a cannabinoid agonist in the mouse tetrad model.
(§2) The tetrad model is described, for example, in the publication of A. C. Howlett et al, International Union of Pharmacology XXVII. Classification of Cannabinoid Receptors, Pharmacol Rev 54, 161-202, 2002 and David R. Compton et al., “In-vivo Characterization of a Specific Cannabinoid Receptor Antagonist (SR141716A): Inhibition of Tetrahydrocannbinol-induced Responses and Apparent Agonist Activity”, J. Pharmacol. Exp. Ther. 277, 2, 586-594, 1996. The corresponding parts of the description are hereby incorporated by reference.
(§3) Male NMRI mice with a weight of 20-30 g (Harlan, Barcelona, Spain) are used in all of the following experiments.
(§4) Before testing in the behavioral procedures given below, mice are acclimatized to the experimental setting. Pre-Treatment control values are determined for analgesia hot plate latency (in seconds), rectal temperature, sedation and catalepsy.
(§5) In order to determine the agonistic activty of the substance to be tested, the mice are injected intravenously with the substance to be tested or the vehicle alone. 15 minutes after injection, latency in hot plate analgesia is measured. Rectal temperature, sedation and catalepsy are measured 20 minutes after injection.
In order to determine the antagonistic activity the identical procedure is used as for the determination of the agonistic effects, but with the difference that the substance to be evaluated for its antagonistic activity is injectected 5 minutes before the intravenous injection of 1.25 mg/kg Win-55,212 a known cannabinoid-receptor agonist.
(§6) The hot plate analgesia is determined according to the method described in Woolfe D. et al. “The evaluation of analgesic action of pethidine hydrochloride (Demerol)”, J. Pharmacol. Exp. Ther. 80, 300-307, 1944. The respective description is hereby incorporated by reference and forms part of the present disclosure.
(§7) The mice are placed on a hot plate (Harvard Analgesimeter) at 55±0.5° C. until they show a painful sensation by licking their paws or jumping and the time for these sensations to occur is recorded. This reading is considered the basal value (B). The maximum time limit the mice are allowed to remain on the hot plate in absence of any painful response is 40 seconds in order to prevent skin damage. This period is called the cut-off time (PC).
(§8) Fifteen minuts after the administration of the substance to be tested, the mice are again placed on the hot plate and the afore described procedure is repeated. This period is called the post-treatment reading (PT).
(§9) The degree of analgesia is calculated from the formula: % MPE of Analgesia=(PT−B)/(PC−B)×100 • MPE Maximum possible effect. Determination of Sedation and Ataxia
(§10) Sedation and ataxia is determined according to the method described in Desmet L. K. C. et al. “Anticonvulsive properties of.Cinarizine and Flunarizine in Rats and Mice”, Arzneim. -Forsch. (Frug Res) 25, 9, 1975. The respective description is hereby incorporated by reference and forms part of the present disclosure.
The chosen scoring system is • 0: no ataxia; • 1: doubful; • 2: obvious calmness and quiet; • 3 pronounced ataxia; prior to as well as after treatment. […]

For series [3], the system named is cannabinoid receptors. The series can be described thus: Mouse tetrad model, agonistic effect (hot plate, hypothermia, catalepsy, sedation). The format is in vivo. Also on record: key to Agonistic effect A: Hot-Plate test: % MPE = (PT−B)/(PC−B)×100; key to Agonistic effect D: Sedation: % sedation = mean score (0-3)/3×100; Agonistic effect B: Hypothermia: unit not given here. To be noted: 5 mg/kg i.v., male NMRI mice.
Excerpt: as §1, §2, §3, §4, §5, §6, §7, §8, §9, §10
The chosen scoring system is • 0: no ataxia; • 1: doubful; • 2: obvious calmness and quiet; • 3 pronounced ataxia; prior to as well as after treatment.
The percentage of sedation is determined according to the formula: % of sedation=arithmetic mean/3×100 Hypothermia: […]

Structures can show the parent of a compound that is named as a salt.

T1 sequence (P21554 whole entry): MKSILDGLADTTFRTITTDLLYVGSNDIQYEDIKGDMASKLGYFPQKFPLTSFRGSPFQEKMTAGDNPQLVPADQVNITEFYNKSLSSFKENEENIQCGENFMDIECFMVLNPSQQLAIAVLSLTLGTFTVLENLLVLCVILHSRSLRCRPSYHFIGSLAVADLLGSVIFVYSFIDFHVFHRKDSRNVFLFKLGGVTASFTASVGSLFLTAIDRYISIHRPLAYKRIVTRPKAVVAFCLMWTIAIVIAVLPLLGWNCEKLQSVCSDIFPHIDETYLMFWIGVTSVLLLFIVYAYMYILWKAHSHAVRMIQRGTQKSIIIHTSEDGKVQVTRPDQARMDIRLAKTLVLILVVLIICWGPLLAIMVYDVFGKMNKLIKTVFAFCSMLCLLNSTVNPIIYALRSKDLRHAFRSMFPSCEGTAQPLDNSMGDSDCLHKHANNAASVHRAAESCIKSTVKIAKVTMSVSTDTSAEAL

`Cc1nn(C)c(C)c1S(=O)(=O)N[C@H]1CN(C(c2ccc(Cl)cc2)c2ccc(Cl)cc2)[C@@H]1C` gave a melting point of 173 to 175 °C.
Take `C[C@@H]1[C@@H](N(S(=O)(=O)c2ccc(F)cc2)S(=O)(=O)c2ccc(F)cc2)CN1C(c1ccc(Cl)cc1)c1ccc(Cl)cc1`: the melting point lay in the range of 60 to 64 °C.
On to `C[C@H]1[C@H](NC(=O)C2CCCCC2)CN1C(c1ccc(Cl)cc1)c1ccc(Cl)cc1`, for which the melting point fell in the range of 65 to 68 °C.
Regarding `C[C@H]1[C@H](NC(=O)c2cc(F)cc(F)c2)CN1C(c1ccc(Cl)cc1)c1ccc(Cl)cc1`, the melting point lay in the range of 57 to 60 °C.
`C[C@H]1C(NS(=O)(=O)c2ccc(F)cc2)CN1C(c1ccc(Cl)cc1)c1ccc(Cl)cc1` (mixture of isomers) showed a melting point of 154 to 157 °C.
Same read-out and setting: the same measure for `C[C@@H]1[C@@H](NS(=O)(=O)c2ccc(-c3ccccc3)cc2)CN1C(c1ccc(Cl)cc1)c1ccc(Cl)cc1` (relative stereo): 145 to 148 °C; for `C[C@@H]1[C@@H](NS(=O)(=O)c2c(Cl)nc3sccn23)CN1C(c1ccc(Cl)cc1)c1ccc(Cl)cc1` (relative stereo): 164 to 169 °C.
As for `C[C@@H]1[C@@H](OS(=O)(=O)c2ccc(F)cc2)CN1C(c1ccc(Cl)cc1)c1ccc(Cl)cc1` (relative stereo) [Example 1, 4-Fluoro-benzenesulfonic acid-trans-1-[bis-(4-chloro-phenyl)-methyl]-2-methyl-azetidin-3-yl ester], the melting point was 105 to 107 °C. Besides, in series [1], the inhibition at 1 µM is 60%. Moreover, in series [2], the “Antagonistic Effect A: Hot-Plate test” value is given as 46 and the “Antagonistic Effect C: Catalepsy” value was 47.
As for `C[C@@H]1[C@@H](NS(=O)(=O)c2cccc3nsnc23)CN1C(c1ccc(Cl)cc1)c1ccc(Cl)cc1` (relative stereo) [Example 15, 2,1,3-Benzothiadiazole-4-sulfonic acid {trans-1-[bis-(4-chloro-phenyl)-methyl]-2-methyl-azetidin-3-yl}-amide], in series [3] (15 minutes after injection), the “Agonistic effect A: Hot-Plate test” value amounted to 14. Besides, in series [3] (20 minutes after injection), the “Agonistic effect B: Hypothermia” value was found to be 0, the “Agonistic effect C: Catalepsy” value is given as 0 and the “Agonistic effect D: Sedation” value was 0. For the same compound, the inhibition at 1 µM in series [1] stood at 66%. Moreover, in series [2], the “Antagonistic Effect A: Hot-Plate test” value is reported as 72, the “Antagonistic Effect B: Hypothermia” value turned out to be 100, the “Antagonistic Effect C: Catalepsy” value is 57 and the “Antagonistic Effect D: Sedation” value was found to be 71.
Compound `C[C@@H]1[C@@H](NS(=O)(=O)c2cc(Cl)cc(Cl)c2)CN1C(c1ccc(Cl)cc1)c1ccc(Cl)cc1` (relative stereo) [Example 18, N-{trans-1-[Bis-(4-chloro-phenyl)-methyl]-2-methyl-azetidin-3-yl}-3,5-dichloro-benzenesulfonamide] displayed a melting point of 144 to 146 °C. Besides, in series [1], the inhibition at 1 µM is 95%.
For the compound `C[C@@H]1[C@@H](NS(=O)(=O)c2csc3ccccc23)CN1C(c1ccc(Cl)cc1)c1ccc(Cl)cc1` (relative stereo) [Example 25, Benzo[b]thiophene-3-sulfonic acid {trans-1-[bis-(4-chloro-phenyl)-methyl]-2-methyl-azetidin-3-yl}amide], the melting point lay within 192 to 197 °C. For the same compound, the inhibition at 1 µM in series [1] was 87%.
The compound `C[C@@H]1[C@@H](NS(=O)(=O)c2ccc3ccccc3c2)CN1C(c1ccc(Cl)cc1)c1ccc(Cl)cc1` (stereo in doubt) came in with a melting point of 156 to 160 °C.
Consider `CC(=O)c1ccc(S(=O)(=O)N[C@H]2CN(C(c3ccc(Cl)cc3)c3ccc(Cl)cc3)[C@@H]2C)cc1` (stereo in doubt), for which the melting point lay within 177 to 180 °C.
The compound `C[C@@H]1[C@@H](NS(=O)(=O)c2ccc(Oc3ccc(Br)cc3)cc2)CN1C(c1ccc(Cl)cc1)c1ccc(Cl)cc1` (stereo in doubt) displayed a melting point of 115 to 119 °C.
`Cc1c(S(=O)(=O)N[C@H]2CN(C(c3ccc(Cl)cc3)c3ccc(Cl)cc3)[C@@H]2C)sc2ccc(Cl)cc12` (stereo in doubt) had a melting point of 105 to 108 °C.
The compound `C[C@@H]1[C@@H](NS(=O)(=O)CCc2cccc3ccccc23)CN1C(c1ccc(Cl)cc1)c1ccc(Cl)cc1` (stereo in doubt) displayed a melting point of 123 to 128 °C.
On the same count and under the same terms, the result for `C[C@@H]1[C@@H](NS(=O)(=O)c2cccc3ccccc23)CN1C(c1ccc(Cl)cc1)c1ccc(Cl)cc1` (stereo in doubt) reads 171 to 174 °C.
For the compound `C[C@@H]1[C@@H](NS(=O)(=O)c2ccc(Oc3ccccc3)cc2)CN1C(c1ccc(Cl)cc1)c1ccc(Cl)cc1` (stereo in doubt), the melting point lay in the range of 160 to 162 °C.
On the same count and under the same terms, the result for `Cc1c(S(=O)(=O)N[C@H]2CN(C(c3ccc(Cl)cc3)c3ccc(Cl)cc3)[C@@H]2C)cnn1-c1ccccc1` (stereo in doubt) reads 173 to 176 °C; that for `C[C@@H]1C(N(C)S(=O)(=O)c2ccc(F)cc2)CN1C(c1ccc(Cl)cc1)c1ccc(Cl)cc1` (stereo in doubt), 182 to 186 °C.
`C[C@@H]1[C@@H](N(Cc2ccc(F)cc2)S(=O)(=O)c2ccc(F)cc2)CN1C(c1ccc(Cl)cc1)c1ccc(Cl)cc1` (stereo in doubt) registered a melting point of 75 to 78 °C.
For the compound `CCCN([C@H]1CN(C(c2ccc(Cl)cc2)c2ccc(Cl)cc2)[C@@H]1C)S(=O)(=O)c1ccc(F)cc1` (stereo in doubt), the melting point was 91 to 97 °C.
The same measure, in the same setting: the same measure for `C[C@H]1[C@H](N)CN1C(c1ccc(Cl)cc1)c1ccc(Cl)cc1` (stereo in doubt): 134 to 136 °C; for `C[C@H]1[C@H](NC(=O)C(F)(F)F)CN1C(c1ccc(Cl)cc1)c1ccc(Cl)cc1` (stereo in doubt) (as salt: TFA): 122 to 127 °C.
The compound `C[C@@H]1[C@@H](NS(=O)(=O)c2ccc(F)cc2)CN1C(c1ccc(Cl)cc1)c1ccc(Cl)cc1` [Example 33, N-{(2R,3S)-1-[Bis-(4-chloro-phenyl)-methyl]-2-methyl-azetidin-3-yl}-4-fluoro-benzenesulfonamide] came in with a melting point of 154 to 158 °C. In addition, in series [1], the inhibition at 1 µM worked out at 71%.

Broadly, the melting point is the temperature of the solid-liquid transition. The term inhibition denotes how much of the control response was suppressed.

For the origin of these results see patent US20050187208A1 (priority 2004, published 2005).
